Key:
[1] = target: T1, FLT3 (Homo sapiens, UniProt P36888); assay: TR-FRET kinase activity assay, FLT3; type: biochemical; details: ATP at Km, 60 minutes
T1 sequence (P36888 27-993): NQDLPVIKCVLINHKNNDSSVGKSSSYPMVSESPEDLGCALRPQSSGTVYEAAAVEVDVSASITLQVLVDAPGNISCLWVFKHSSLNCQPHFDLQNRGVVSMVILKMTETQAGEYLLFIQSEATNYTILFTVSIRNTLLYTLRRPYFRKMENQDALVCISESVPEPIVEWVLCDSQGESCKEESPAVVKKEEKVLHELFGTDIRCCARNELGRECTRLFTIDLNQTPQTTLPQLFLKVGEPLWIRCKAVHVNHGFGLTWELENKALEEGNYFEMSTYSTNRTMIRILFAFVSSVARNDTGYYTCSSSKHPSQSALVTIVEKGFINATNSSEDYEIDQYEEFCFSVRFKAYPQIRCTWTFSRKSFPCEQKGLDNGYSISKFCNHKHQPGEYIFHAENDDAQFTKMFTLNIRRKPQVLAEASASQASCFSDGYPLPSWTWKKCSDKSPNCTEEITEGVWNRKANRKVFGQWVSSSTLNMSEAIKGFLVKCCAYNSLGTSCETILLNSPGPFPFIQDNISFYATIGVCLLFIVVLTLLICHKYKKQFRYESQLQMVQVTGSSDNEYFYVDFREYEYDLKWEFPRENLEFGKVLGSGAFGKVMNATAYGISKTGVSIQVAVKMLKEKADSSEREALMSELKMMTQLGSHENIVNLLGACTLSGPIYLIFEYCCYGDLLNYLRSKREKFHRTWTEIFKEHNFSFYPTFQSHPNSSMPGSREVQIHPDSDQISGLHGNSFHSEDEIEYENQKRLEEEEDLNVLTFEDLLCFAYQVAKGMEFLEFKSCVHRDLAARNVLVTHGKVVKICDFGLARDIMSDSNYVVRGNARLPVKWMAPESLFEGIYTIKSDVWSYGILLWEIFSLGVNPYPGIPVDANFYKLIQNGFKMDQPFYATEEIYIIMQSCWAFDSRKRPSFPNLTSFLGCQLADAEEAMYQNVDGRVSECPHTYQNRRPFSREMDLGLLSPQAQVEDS
Method in brief: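 IC50s come from loss of TR-FRET between a Eu-labeled phospho-site antibody and fluorescent tyrosine-phosphorylated peptide. Kinase reactions, initiated with Km ATP, ran 60 min at RT at pH 7.5 before EDTA quench.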

[2] = target: T2, TYRO3 (Homo sapiens, UniProt Q06418); assay: TR-FRET kinase activity assay, TYRO3; type: biochemical; details: ATP at Km, 60 minutes
T2 sequence (Q06418 41-890): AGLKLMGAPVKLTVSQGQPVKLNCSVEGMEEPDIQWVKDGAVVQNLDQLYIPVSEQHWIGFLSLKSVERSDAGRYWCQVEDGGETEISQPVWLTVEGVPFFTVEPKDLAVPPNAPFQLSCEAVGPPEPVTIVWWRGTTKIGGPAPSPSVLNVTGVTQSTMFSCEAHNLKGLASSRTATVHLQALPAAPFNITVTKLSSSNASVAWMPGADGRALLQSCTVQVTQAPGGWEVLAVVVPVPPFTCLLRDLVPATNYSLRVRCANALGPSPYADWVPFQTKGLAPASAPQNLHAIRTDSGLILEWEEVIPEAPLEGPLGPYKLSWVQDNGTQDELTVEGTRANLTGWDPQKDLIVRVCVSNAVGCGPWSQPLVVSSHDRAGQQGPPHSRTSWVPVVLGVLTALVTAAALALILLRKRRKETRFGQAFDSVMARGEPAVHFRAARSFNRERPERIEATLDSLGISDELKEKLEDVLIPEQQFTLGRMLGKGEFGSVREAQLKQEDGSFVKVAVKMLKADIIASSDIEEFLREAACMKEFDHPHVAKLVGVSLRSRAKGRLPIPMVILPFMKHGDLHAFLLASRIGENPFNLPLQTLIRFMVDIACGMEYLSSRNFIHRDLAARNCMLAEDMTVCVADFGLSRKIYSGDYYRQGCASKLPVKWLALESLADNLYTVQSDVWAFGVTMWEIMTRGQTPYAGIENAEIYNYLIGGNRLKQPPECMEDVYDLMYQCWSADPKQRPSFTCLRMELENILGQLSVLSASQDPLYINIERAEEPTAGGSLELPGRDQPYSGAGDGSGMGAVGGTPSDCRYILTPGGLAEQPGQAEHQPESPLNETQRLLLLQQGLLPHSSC
Protocol: IC50 values for compound inhibition of AXL, FLT3, MERTK and TYRO3 activity were determined using a TR-FRET activity assay. A peptide substrate with a fluorescent label is phosphorylated on a tyrosine by each enzyme, where the now phosphorylated product is bound by a Europium-labeled antibody specific to that phosphorylation site. The proximity between the antibody and the substrate gives a signal known as TR-FRET. As the enzyme is inhibited by compound, less phosphorylated peptide product is made, causing a decrease in overall signal.
Activity assays were performed in a 384-well, small volume, black microplates in an active enzyme volume of 10 uL and final developed volume of 20 uL. Final assay conditions are 50 mM HEPES pH 7.5, 10 mM MgCl2, 1 mM EGTA, 0.01% Brij 35 and 1 mM DTT, all at RT. Enzyme, substrate-labeled peptide and compound are mixed, and then the reaction is initiated with the addition of ATP at Km concentration for each enzyme. The reaction is allowed to run 60 minutes and then quenched with a 12.5 mM EDTA (ethylenediamine tetraacetic acid) solution. The plate is then developed with the addition of Europium-labeled antibody for a final volume of 20 uL and is then incubated for 30 minutes in darkness. Plates are read in a PHERASTAR® plate reader. Data are analyzed in GraphPad PRISM.

SMILES | IC50 [1] [µM] | IC50 [2] [µM]
CC(C)Nc1ncc2c(OC3CCOCC3)ncc(-c3cccc(CC(=O)O)c3)c2n1 [Compound 276] | 1 to 10 | 0.1 to 1
O[C@H]1CC[C@H](c2cnc(OC3CCOCC3)c3cnc(N[C@H]4CCNC4)nc32)CC1 [Compound 277] | 1 to 10 | 1 to 10
